The experiment addresses T1, M1 family aminopeptidase (Plasmodium falciparum (isolate FcB1 / Columbia), UniProt O96935).
T1 sequence (O96935 whole entry): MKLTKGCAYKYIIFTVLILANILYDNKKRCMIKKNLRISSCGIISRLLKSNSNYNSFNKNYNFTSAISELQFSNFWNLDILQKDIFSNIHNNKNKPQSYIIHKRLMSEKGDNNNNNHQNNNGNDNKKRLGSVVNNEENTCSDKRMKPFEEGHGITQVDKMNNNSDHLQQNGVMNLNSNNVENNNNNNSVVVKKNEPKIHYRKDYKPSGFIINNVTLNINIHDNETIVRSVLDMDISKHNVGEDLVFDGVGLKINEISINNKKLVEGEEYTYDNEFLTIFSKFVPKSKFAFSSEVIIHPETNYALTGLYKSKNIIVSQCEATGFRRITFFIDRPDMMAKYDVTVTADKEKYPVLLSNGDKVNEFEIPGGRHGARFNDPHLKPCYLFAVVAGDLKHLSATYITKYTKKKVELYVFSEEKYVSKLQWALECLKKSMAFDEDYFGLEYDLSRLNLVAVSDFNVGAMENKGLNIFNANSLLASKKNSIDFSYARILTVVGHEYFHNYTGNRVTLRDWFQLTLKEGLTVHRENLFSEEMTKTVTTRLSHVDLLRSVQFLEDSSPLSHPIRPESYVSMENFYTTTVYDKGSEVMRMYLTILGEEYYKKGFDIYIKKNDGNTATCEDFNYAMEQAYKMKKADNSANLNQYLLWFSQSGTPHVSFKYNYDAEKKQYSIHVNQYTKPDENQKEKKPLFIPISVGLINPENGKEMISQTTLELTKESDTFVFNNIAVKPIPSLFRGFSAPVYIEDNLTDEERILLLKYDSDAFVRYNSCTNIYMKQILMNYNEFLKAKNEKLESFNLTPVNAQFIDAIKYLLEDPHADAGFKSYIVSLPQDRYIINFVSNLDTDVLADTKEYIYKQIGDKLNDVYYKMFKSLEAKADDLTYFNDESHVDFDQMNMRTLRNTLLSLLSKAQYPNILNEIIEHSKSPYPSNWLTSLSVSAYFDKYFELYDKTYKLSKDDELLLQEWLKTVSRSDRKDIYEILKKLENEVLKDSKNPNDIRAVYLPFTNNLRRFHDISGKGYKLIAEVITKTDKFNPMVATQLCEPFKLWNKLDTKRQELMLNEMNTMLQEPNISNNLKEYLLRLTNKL
The experiment in a line: malaria alanyl aminopeptidase activity blockers – biochemical, fluorogenic H-Leu-NHMec substrate, 1536-well (AID 1445).

As usually defined, the IC50 is the concentration that gives 50% inhibition. Lower therefore signals higher potency. In turn, `C/C(Cl)=C\CN1C(=O)C(=NNC(N)=S)c2ccccc21` [[(Z)-[1-[(E)-3-chlorobut-2-enyl]-2-oxoindol-3-ylidene]amino]thiourea] yielded an IC50 of 63.5 µM. That is a double-digit micromolar value.
Take `O=C(O)Cc1sc(N[N-][CH+]c2ccc(-c3ccc(Cl)c([N+](=O)[O-])c3)o2)nc1O` [MLS000689975]: the IC50 was 54.1 µM.
Then `CC(N=Nc1nc(C(=O)O)cs1)c1ccccc1` (stereo not drawn) [2-[2-(1-phenylethylidene)hydrazinyl]-4-thiazolecarboxylic acid], with 34.2 µM; and `CCc1ccc2oc(-c3ccc(OC)cc3)c/c(=N\c3cccc(C(=O)O)c3)c2c1` [(3-carboxyphenyl)-[6-ethyl-2-(4-methoxyphenyl)-1-benzopyran-4-ylidene]ammonium;tetrafluoroborate], with 11.9 µM; and `COC1=CC(C=NNC(=O)[C@H](Cc2c[nH]c3ccccc23)NC(=O)OCC(C)C)C=C([N+](=O)[O-])C1=O` (stereo partly drawn) [N-[(2S)-3-(1H-indol-3-yl)-1-[[(E)-(3-methoxy-5-nitro-4-oxo-1-cyclohexa-2,5-dienylidene)methyl]hydrazo]-1-oxopropan-2-yl]carbamic acid 2-methylpropyl ester], with 12.2 µM.
The value for `CC1=CC([N+](=O)[O-])=CC(/C=N/NC(=O)C2COc3ccccc3O2)C1=O` (stereo not drawn) [N'-[(E)-(5-methyl-3-nitro-6-oxocyclohexa-2,4-dien-1-ylidene)methyl]-2,3-dihydro-1,4-benzodioxine-3-carbohydrazide] was 3.05 µM.
The value for `O=C(O)c1cc(-c2ccc(CN=Nc3ccc([N+](=O)[O-])cn3)o2)ccc1Cl` [2-chloro-5-[5-[[(5-nitropyridin-2-yl)hydrazinylidene]methyl]furan-2-yl]benzoic acid] was 12.7 µM.
In turn, `COC1=CC(/C=C(\C#N)c2nc3ccccc3s2)C=C([N+](=O)[O-])C1=O` (stereo not drawn) [MLS000682120] had an IC50 of 11 µM.
The value for `N#CC(C(=O)CSc1nnc(Cc2cccs2)n1C1CCCCC1)c1nc2ccccc2[nH]1` (stereo not drawn) [MLS000098387] was 78.9 µM; that for `CN1C(=O)/C(=C/c2ccc(-c3ccccc3[N+](=O)[O-])o2)S/C1=N/c1ccc(Cl)c(C(=O)O)c1` [2-Chloro-5-[3-methyl-5-[1-[5-(2-nitro-phenyl)-furan-2-yl]-meth-(Z)-ylidene]-4-oxo-thiazolidin-(2Z)-ylideneamino]-benzoic acid] was 16.1 µM; that for `COc1cc(C=Nn2c(O)csc2=S)cc(Br)c1O` [3-[[(Z)-(3-bromo-5-methoxy-4-oxo-1-cyclohexa-2,5-dienylidene)methyl]amino]-2-sulfanylidene-4-thiazolidinone] was 107 µM.
For the compound `Nc1nnc(CC(=O)N/N=C/C2C=C([N+](=O)[O-])C=C(Br)C2=O)s1` (stereo not drawn) [2-(5-azanyl-1,3,4-thiadiazol-2-yl)-N'-[(E)-(5-bromanyl-3-nitro-6-oxidanylidene-cyclohexa-2,4-dien-1-ylidene)methyl]ethanehydrazide], 30 µM corresponded to half-maximal inhibition (IC50).
Then `CCOC(=O)C(C=NC(N)=Nc1nc2ccccc2o1)C(=O)OCC` [2-[[[amino-(1,3-benzoxazol-2-ylamino)methylidene]amino]methylidene]propanedioic acid diethyl ester], with 79.2 µM.
On to `N#CC(=NNc1ccc(Cl)cc1)C(=O)c1ccccc1` [2-[(4-chlorophenyl)hydrazono]-3-oxo-3-phenylpropanenitrile], for which the midpoint of inhibition, the IC50, lay at 106 µM.
In turn, `Cc1ccc(-c2csc(-n3[nH]c(C)c(N=Nc4ccccc4O)c3=O)n2)cc1` yielded an IC50 of 3.37 µM.
The value for `N#C/C(=C\C1C=CC(=O)C([N+](=O)[O-])=C1)c1nc2ccccc2s1` (stereo not drawn) was 33.9 µM; that for `Cc1ccc(O)c(NC=C2C(=O)c3ccccc3C2=O)c1` [MLS000104939] was 71.9 µM.
The value for `O=C(O)c1cccc(NC(=S)NN=Cc2ccccc2OCc2cccc(Br)c2)c1` [SMR000312741] was 109 µM.
The value for `COc1ccc(OC)c(C2C(C(=O)Nc3cccnc3)=C(C)N=C3CCCC(=O)C32)c1` (stereo not drawn) [4-(2,5-dimethoxyphenyl)-2-methyl-5-oxo-N-3-pyridinyl-1,4,5,6,7,8-hexahydro-3-quinolinecarboxamide] was 52.9 µM; that for `CC(=O)N1N=C(C2C(=O)N(C)C(=O)N(C)C2=O)CC1c1ccccc1` (stereo not drawn) [5-(1-acetyl-5-phenylpyrazolidin-3-ylidene)-1,3-dimethyl-1,3-diazinane-2,4,6-trione] was 16 µM.
Turning to `Cc1nnc(=O)[nH]c1N=NCc1cccs1` [thiophene-2-carbaldehyde (6-methyl-3-oxo-2,3-dihydro-1,2,4-triazin-5-yl)hydrazone], the IC50 was found to be 25.8 µM. Compared with the last compound, the IC50 is about 1.6-fold higher.
In turn, `O=C(O)c1cccc(-c2ccc(CN=Nc3ccc([N+](=O)[O-])cc3)o2)c1` [MLS000777078] displayed an IC50 of 27.3 µM.
Then `Cc1ccc2c(c1C)Nc1c(c(=O)c1=O)N2` [SMR000459860], with 48.5 µM.
For `CC(NNC(=O)c1cc2ccccc2cc1O)=C1C(=O)c2ccccc2C1=O` [N-[1-[1,3-bis(oxidanylidene)inden-2-yl]ethylideneamino]-3-oxidanyl-naphthalene-2-carboxamide], half-maximal inhibition (IC50) was put at 12 µM.
The value for `CCOc1ccc(-n2c(O)c(CN=Nc3nnc(C)c(=O)[nH]3)c3ccccc3c2=O)cc1` was 20.9 µM.
Then `COc1cc(Br)c(C2c3c(-c4cccnc4)n[nH]c3OC(=N)C2C#N)cc1OC` (stereo not drawn) [SMR000114618], with 44.6 µM.
The value for `COC1=CC(/C=C(\C#N)c2nc3ccc(C)cc3[nH]2)C=C([N+](=O)[O-])C1=O` (stereo not drawn) [(2Z,3E)-3-(3-methoxy-5-nitro-4-oxocyclohexa-2,5-dien-1-ylidene)-2-(5-methyl-1,3-dihydrobenzimidazol-2-ylidene)propanenitrile] was 16.2 µM; that for `O=C1NC(=S)NC(=O)C1N=Nc1cc2c(cc1[N+](=O)[O-])OCO2` [5-[(6-nitro-1,3-benzodioxol-5-yl)hydrazinylidene]-2-sulfanylidene-1,3-diazinane-4,6-dione] was 26.9 µM.
For the compound `O=C1N=c2ccc(Br)cc2=C1NNc1nnn[nH]1` [5-bromanyl-3-[2-(2H-1,2,3,4-tetrazol-5-yl)hydrazinyl]indol-2-one], inhibition was half-maximal at 26.5 µM (IC50).
The value for `COC(=O)CN1C(=O)C2(c3ccccc31)c1c(-c3cccs3)n[nH]c1OC(=N)C2C#N` (stereo not drawn) [methyl (6'-amino-5'-cyano-2-oxo-3'-thien-2-yl-1'H-spiro[indole-3,4'-pyrano[2,3-c]pyrazol]-1(2H)-yl)acetate] was 36.7 µM; that for `COC(=O)c1ccc(COc2ccccc2CN=Nc2cccc(C(=O)O)c2)cc1` [MLS000775447] was 47 µM; that for `O=C(O)COc1ccccc1CN=Nc1ccc(S(=O)(=O)Nc2ccc(Cl)cc2)cc1[N+](=O)[O-]` [MLS000774437] was 38.9 µM.
The value for `C#CCOCCOCCOCCNc1nc(N2CCN(C(=O)[C@H](Cc3cc4ccccc4[nH]3)n3cc([C@@H](N)C(C)CC)nn3)CC2)nc(N2CCN(C(=O)[C@H](Cc3cc4ccccc4[nH]3)n3cc([C@@H](N)CC(C)C)nn3)CC2)n1` (stereo partly drawn) [SMR000391064] was 54.6 µM; that for `COc1ccc(-c2c/c(=N\CCCCCC(=O)O)c3cc(C)ccc3o2)cc1` [[2-(4-methoxyphenyl)-6-methyl-chromen-4-ylidene]-(6-oxidanyl-6-oxidanylidene-hexyl)azanium;perchlorate] was 7.22 µM; that for `Cc1c(N2C(=O)C(=O)C(C(=O)c3ccc(Br)cc3)C2c2cccnc2)c(=O)n(-c2ccccc2)n1C` (stereo not drawn) [MLS000724383] was 38.1 µM.
The value for `O=C1NC(=S)NC(=O)C1N=Nc1ccc(-c2ccccc2)cc1[N+](=O)[O-]` [5-[(2-nitro-4-phenylphenyl)hydrazinylidene]-2-sulfanylidene-1,3-diazinane-4,6-dione] was 10.5 µM.
Take `COc1ccc(-c2c/c(=N\CCC(=O)O)c3cc(C)ccc3o2)cc1`: inhibition was half-maximal at 38.9 µM (IC50).
Then `CC(NNC(=O)c1ccccc1O)=C1C(=O)c2ccccc2C1=O` [MLS000523164], with 12.8 µM; and `O=C(O)c1ccc(-c2ccc(CN=Nc3ccc([N+](=O)[O-])cc3)o2)cc1`, with 43.1 µM; and `Cc1cc(=O)[nH]c(N=NCc2c(O)n(-c3ccccc3)c(=O)c3ccccc23)n1` [SMR000221270], with 47 µM.
The value for `CCOC1=CC(/C=N/NC(=O)c2cccs2)C=C([N+](=O)[O-])C1=O` (stereo not drawn) [MLS000698505] was 103 µM; that for `Cc1[nH]n(-c2ccccc2)c(=O)c1C=Nc1ccccc1O` was 12.8 µM; that for `C#CCOCCOCCOCCNc1nc(N2CCN(C(=O)C(Cc3cc4ccccc4[nH]3)n3cc(C(N)C(C)CC)nn3)CC2)nc(N2CCN(C(=O)C(Cc3cc4ccccc4[nH]3)n3cc(C(N)C(C)CC)nn3)CC2)n1` (stereo not drawn) [SMR000391068] was 72 µM.

(Values after BindingDB's records for doi:10.7270/Q27H1H0J (Srmlsc, 2008).)
